Test results: PMC5615911 (Toxicology Reports, 2016)
Entries after “also recorded” stand apart in the source; their conditions may differ.

How the values were obtained:
[1] = In vitro metabolism, human liver microsomes; assay type: in vitro ADME; conditions: 60 min, 10 μM S3643, relative to S3643 peak area at time 0
[2] = In vivo metabolism of S3643, single oral dose 100 mg/kg bw; design: species or system Sprague-Dawley rats
[3] = tested on: S. typhimurium strains TA98, TA100, TA1535, TA1537; test: Bacterial reverse mutation test; assay type: cell-based
E. coli strain WP2 uvrA = test: Bacterial reverse mutation test; assay type: cell-based
[4] = tested on: Chinese hamster ovary cells (CHO-WBL); test: In vitro micronucleus test; assay type: cell-based
[5] = 28-day dose-range finding toxicity study; assay type: in vivo, Sprague-Dawley rats; conditions: 10, 30, 100 mg/kg bw/day (food ad-mix)
[6] = Toxicokinetics in the 90-day dietary study; assay type: in vivo, Sprague-Dawley rats; conditions: for AUC0–24 h/dose / Cmax/dose: M+F combined
[7] = tested on: Primary human lymphocytes; test: In vitro chromosome aberration test
hERG = hERG (Homo sapiens, UniProt Q12809); test: hERG electrophysiology
CYP1A2 = target: T1, CYP1A2 (Homo sapiens, UniProt P05177); test: CYP inhibition, LC–MS/MS assay in human liver microsomes
T1 sequence (P05177 1-516): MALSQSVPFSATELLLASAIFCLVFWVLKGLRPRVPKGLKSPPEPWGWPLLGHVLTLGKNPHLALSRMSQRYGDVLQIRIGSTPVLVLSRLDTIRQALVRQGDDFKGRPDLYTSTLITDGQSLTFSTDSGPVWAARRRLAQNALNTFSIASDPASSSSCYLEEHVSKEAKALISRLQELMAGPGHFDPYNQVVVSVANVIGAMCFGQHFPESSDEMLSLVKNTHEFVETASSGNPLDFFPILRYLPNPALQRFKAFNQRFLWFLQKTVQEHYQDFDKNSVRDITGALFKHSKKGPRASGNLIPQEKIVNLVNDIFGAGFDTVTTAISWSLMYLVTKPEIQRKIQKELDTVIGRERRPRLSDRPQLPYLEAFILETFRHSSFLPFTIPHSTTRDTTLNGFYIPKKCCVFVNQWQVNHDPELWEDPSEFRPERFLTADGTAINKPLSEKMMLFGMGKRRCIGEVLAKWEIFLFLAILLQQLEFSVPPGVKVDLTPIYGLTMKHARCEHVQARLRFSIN

CYP2C9 = CYP2C9 (Homo sapiens, UniProt P11712); test: as above; conditions: probe tolbutamide
CYP2C19 = CYP2C19 (Homo sapiens, UniProt P33261); test: as above; conditions: probe S-mephenytoin
CYP2D6 = CYP2D6 (Homo sapiens, UniProt P10635); test: as above; conditions: probe bufuralol
CYP3A4 = CYP3A4 (Homo sapiens, UniProt P08684); test: as above; conditions: for inhibition at 10 µM: human, human liver microsomes
[8] = tested on: GPCRs, ion channels, nuclear receptors, transporters; test: Receptor lead profiling panel; conditions: 10 μM
[9] = both, Sprague-Dawley, rat, plasma, oral, 100 mg/kg bw
[10] = rat plasma at 1 h, males and females combined
[11] = absence and presence of metabolic activation

Chain of CYP3A4 (P08684 whole entry): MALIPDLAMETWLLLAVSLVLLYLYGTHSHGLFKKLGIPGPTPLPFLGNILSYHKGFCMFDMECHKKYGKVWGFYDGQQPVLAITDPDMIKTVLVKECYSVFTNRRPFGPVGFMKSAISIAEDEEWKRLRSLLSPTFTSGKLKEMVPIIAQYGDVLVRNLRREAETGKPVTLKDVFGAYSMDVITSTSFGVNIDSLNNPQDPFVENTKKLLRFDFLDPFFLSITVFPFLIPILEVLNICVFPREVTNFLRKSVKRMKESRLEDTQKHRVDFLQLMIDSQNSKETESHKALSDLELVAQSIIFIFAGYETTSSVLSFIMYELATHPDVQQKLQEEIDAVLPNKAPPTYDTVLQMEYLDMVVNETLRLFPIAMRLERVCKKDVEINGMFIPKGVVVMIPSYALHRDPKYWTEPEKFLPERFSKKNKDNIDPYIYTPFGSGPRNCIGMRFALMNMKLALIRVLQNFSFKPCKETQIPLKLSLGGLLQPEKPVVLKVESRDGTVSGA
Chain of hERG (Q12809 whole entry): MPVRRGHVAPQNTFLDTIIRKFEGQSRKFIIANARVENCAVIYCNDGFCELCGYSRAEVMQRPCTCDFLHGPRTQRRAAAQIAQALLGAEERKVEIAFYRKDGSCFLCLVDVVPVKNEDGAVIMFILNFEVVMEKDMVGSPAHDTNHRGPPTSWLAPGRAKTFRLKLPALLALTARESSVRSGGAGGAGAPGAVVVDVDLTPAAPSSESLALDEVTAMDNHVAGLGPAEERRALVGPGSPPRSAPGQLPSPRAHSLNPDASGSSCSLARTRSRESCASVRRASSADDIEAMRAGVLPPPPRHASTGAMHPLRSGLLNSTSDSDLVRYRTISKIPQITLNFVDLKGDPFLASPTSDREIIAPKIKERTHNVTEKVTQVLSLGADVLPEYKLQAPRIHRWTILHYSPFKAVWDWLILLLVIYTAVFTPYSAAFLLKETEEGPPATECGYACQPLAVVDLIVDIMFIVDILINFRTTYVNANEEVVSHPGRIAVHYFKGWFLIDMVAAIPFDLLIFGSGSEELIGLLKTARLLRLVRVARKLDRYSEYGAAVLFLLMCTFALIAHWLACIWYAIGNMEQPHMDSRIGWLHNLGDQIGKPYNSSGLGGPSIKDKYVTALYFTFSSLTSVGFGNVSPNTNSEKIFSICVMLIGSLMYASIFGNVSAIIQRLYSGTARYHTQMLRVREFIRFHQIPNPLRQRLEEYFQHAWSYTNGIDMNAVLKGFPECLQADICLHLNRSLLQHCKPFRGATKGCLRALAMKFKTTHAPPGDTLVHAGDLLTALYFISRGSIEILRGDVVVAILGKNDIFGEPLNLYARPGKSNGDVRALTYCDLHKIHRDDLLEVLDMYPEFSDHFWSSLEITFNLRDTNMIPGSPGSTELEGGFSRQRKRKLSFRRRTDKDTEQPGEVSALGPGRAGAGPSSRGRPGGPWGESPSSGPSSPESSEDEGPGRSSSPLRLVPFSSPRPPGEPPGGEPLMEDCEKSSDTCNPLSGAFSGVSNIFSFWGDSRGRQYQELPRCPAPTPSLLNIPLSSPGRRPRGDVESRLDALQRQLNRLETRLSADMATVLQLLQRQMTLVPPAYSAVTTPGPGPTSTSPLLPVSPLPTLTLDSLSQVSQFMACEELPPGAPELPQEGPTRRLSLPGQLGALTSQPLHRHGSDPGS
Chain of CYP2C9 (P11712 whole entry): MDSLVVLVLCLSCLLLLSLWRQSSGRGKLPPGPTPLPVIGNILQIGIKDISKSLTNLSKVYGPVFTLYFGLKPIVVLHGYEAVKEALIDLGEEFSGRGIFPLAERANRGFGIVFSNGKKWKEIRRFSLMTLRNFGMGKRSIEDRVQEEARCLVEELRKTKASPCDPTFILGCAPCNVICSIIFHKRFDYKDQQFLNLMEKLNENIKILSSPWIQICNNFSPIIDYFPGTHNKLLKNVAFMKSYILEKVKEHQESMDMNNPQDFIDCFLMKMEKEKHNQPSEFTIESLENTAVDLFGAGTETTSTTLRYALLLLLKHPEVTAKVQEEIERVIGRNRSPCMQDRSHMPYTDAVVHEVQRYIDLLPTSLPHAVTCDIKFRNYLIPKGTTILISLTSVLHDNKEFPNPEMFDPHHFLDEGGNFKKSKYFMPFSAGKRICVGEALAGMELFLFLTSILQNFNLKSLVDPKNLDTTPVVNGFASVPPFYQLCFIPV
Chain of CYP2D6 (P10635 whole entry): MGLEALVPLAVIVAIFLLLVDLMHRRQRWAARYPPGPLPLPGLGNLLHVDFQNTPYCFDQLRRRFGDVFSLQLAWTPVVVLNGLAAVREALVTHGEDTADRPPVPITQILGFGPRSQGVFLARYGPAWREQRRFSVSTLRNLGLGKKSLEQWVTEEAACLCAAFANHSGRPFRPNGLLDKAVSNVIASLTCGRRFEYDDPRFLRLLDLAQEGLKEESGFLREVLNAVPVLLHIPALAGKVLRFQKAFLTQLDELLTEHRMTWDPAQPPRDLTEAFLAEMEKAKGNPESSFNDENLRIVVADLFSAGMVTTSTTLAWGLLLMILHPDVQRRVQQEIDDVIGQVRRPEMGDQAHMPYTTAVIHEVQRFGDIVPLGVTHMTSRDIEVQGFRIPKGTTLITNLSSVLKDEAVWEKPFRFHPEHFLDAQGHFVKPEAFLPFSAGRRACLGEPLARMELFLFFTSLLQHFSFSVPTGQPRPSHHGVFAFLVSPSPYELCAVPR
Chain of CYP2C19 (P33261 whole entry): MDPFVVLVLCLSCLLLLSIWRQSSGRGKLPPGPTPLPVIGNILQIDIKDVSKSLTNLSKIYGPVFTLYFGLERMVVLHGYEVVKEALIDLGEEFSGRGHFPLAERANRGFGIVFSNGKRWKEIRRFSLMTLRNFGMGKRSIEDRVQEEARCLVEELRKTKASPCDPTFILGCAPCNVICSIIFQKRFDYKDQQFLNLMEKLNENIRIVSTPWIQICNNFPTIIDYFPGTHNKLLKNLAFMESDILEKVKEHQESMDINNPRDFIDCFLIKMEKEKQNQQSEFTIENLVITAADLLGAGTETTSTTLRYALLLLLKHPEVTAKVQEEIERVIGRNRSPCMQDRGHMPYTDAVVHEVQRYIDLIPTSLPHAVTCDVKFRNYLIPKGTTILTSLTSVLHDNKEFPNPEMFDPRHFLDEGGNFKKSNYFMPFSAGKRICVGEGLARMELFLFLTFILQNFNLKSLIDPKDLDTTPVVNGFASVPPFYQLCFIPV

## COc1cccc(-c2n[nH]c(SCc3ccccn3)n2)c1OC [S3643, 2-(((3-(2,3-dimethoxyphenyl)-1H-1,2,4-triazol-5-yl)thio)methyl)pyridine]
[1]
  % MS Peak Area, Human: 54.9%
[2]; [9]
  concentration at 0.25 h: 86000 ng/mL
  concentration at 0.5 h: 81400 ng/mL
  concentration at 1 h: 55900 ng/mL
  concentration at 2 h: 29200 ng/mL
  concentration at 4 h: 14100 ng/mL
  concentration at 8 h: 4830 ng/mL
  concentration at 24 h: 63 ng/mL
[2]; [10]
  % Peak Area: 55.52%
  Peak Area (×10^6): 69.9
[3]; 63–1000 μg/plate, preincubation, +S9
  Reverse mutation (in vitro), result: Negative
[3]; 130–2000 μg/plate, plate incorporation, ±S9
  Reverse mutation (in vitro), result: Negative
[3]; 130–2000 μg/plate, preincubation, −S9
  Reverse mutation (in vitro), result: Negative
[3]; [11]
  Mutagenicity, conclusion: not mutagenic
E. coli strain WP2 uvrA; 250–5000 μg/plate, plate incorporation and pre-incubation, ±S9
  Reverse mutation (in vitro), result: Negative
E. coli strain WP2 uvrA; [11]
  Mutagenicity, conclusion: not mutagenic
[4]; 16–63 μg/mL, 19 h exposure, −S9
  Micronucleus formation (in vitro), result: Negative
[4]; 50–200 μg/mL, 3 h exposure, +S9
  Micronucleus formation (in vitro), result: Negative
[4]; 100–300 μg/mL, 3 h exposure, −S9
  Micronucleus formation (in vitro), result: Negative
[4]; 3 h, +S9, 50 μg/mL
  % cells in cytostasis: −1%
[4]; 3 h, +S9, 100 μg/mL
  % cells in cytostasis: −2%
[4]; 3 h, −S9, 100 μg/mL
  % cells in cytostasis: 1%
[4]; 3 h, −S9, 200 μg/mL
  % cells in cytostasis: 0%
[4]; 3 h, −S9, 300 μg/mL
  % cells in cytostasis: 25%
[4]; 3 h, −S9, 450 μg/mL
  % cells in cytostasis: 93%
[4]; 19 h, −S9, 16 μg/mL
  % cells in cytostasis: 10%
[4]; 19 h, −S9, 63 μg/mL
  % cells in cytostasis: 50%
[4]; 19 h, −S9, 130 μg/mL
  % cells in cytostasis: 93%
[4]; all conditions
  Induction of micronuclei, conclusion: did not induce micronuclei
[5]
  Findings: No test-article related findings
[6]; Day 7, nominal 10 mg/kg bw
  AUC0–24 h/dose: 574 ng·h/mL/mg/kg
  Cmax/dose: 31.9 ng/mL/mg/kg
[6]; Day 7, nominal 30 mg/kg bw
  AUC0–24 h/dose: 1140 ng·h/mL/mg/kg
  Cmax/dose: 80.6 ng/mL/mg/kg
[6]; Day 7, nominal 100 mg/kg bw
  AUC0–24 h/dose: 1280 ng·h/mL/mg/kg
  Cmax/dose: 75.7 ng/mL/mg/kg
[6]; Day 90, nominal 10 mg/kg bw
  AUC0–24 h/dose: 1070 ng·h/mL/mg/kg
  Cmax/dose: 78.3 ng/mL/mg/kg
[6]; Day 90, nominal 30 mg/kg bw
  AUC0–24 h/dose: 1560 ng·h/mL/mg/kg
  Cmax/dose: 98.0 ng/mL/mg/kg
[6]; Day 90, nominal 100 mg/kg bw
  AUC0–24 h/dose: 1730 ng·h/mL/mg/kg
  Cmax/dose: 97.5 ng/mL/mg/kg
[6]; Day 90/Day 7, nominal 10 mg/kg bw
  ACUM Ratio: 1.86
[6]; Day 90/Day 7, nominal 30 mg/kg bw
  ACUM Ratio: 1.37
[6]; Day 90/Day 7, nominal 100 mg/kg bw
  ACUM Ratio: 1.35
[6]; both, Sprague-Dawley (Crl:CD(SD)), rat, plasma, po, 100 mg/kg bw/day, Combined mean AUC0-24hr, Day 90, 100 mg/kg bw/day
  AUC(0-t): 184 µg·h/mL
[7]; 63–250 μg/mL, 3 h exposure, +S9
  Chromosome aberration (in vitro), result: Negative
[7]; 63–250 μg/mL, 20 h exposure, −S9
  Chromosome aberration (in vitro), result: Negative
[7]; 130–500 μg/mL, 3 h exposure, −S9
  Chromosome aberration (in vitro), result: Negative
[7]; non-activated and S9-activated
  Induction of structural and numerical chromosome aberrations, conclusion: negative
hERG
  inhibition at 10 µM: < 10%
CYP1A2
  IC50: > 10 µM
CYP1A2; human, human liver microsomes, probe phenacetin
  inhibition at 10 µM: 43%
CYP2C9
  inhibition at 10 µM: 8%
CYP2C19
  inhibition at 10 µM: 13%
CYP2D6
  inhibition at 10 µM: 22%
CYP3A4
  IC50: > 10 µM
  inhibition at 10 µM: < 50%
CYP3A4; probe midazolam
  inhibition at 10 µM: 30%
[8]
  Significant responses (≥50% inhibition or stimulation): No significant responses; also recorded: No other significant off-target activities
